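Exposure lasted 48 hours, with cells grown in 96-well plates and compounds tested at five concentrations. GI50 = concentration required for 50% inhibition of growth. TGI marks complete inhibition of growth.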
Columns and labels:
Test in all cases: inhibition of tumour cell growth, NCI panel, 48 h
786-0 renal = system: 786-0 renal
A498 renal = system: A498 renal
A549 NSCLC = system: A549 NSCLC
ACHN renal = system: ACHN renal
BT-549 breast = system: BT-549 breast
CAKI-1 renal = system: CAKI-1 renal
CCRF-CEM leukemia = system: CCRF-CEM leukemia
COLO 205 colon = system: COLO 205 colon
DU-145 prostate = system: DU-145 prostate
EKVX NSCLC = system: EKVX NSCLC
HCC-2998 colon = system: HCC-2998 colon
HCT-116 colon = system: HCT-116 colon
HCT-15 colon = system: HCT-15 colon
HL-60(TB) leukemia = system: HL-60(TB) leukemia
HOP-62 NSCLC = system: HOP-62 NSCLC
HOP-92 NSCLC = system: HOP-92 NSCLC
HS 578T breast = system: HS 578T breast
HT29 colon = system: HT29 colon
IGROV1 ovarian = system: IGROV1 ovarian
K-562 leukemia = system: K-562 leukemia
KM12 colon = system: KM12 colon
LOX IMVI melanoma = system: LOX IMVI melanoma
M14 melanoma = system: M14 melanoma
MALME-3M melanoma = system: MALME-3M melanoma
MCF7 breast = system: MCF7 breast
MDA-MB-231 breast = system: MDA-MB-231 breast
MDA-MB-435 = system: MDA-MB-435
MDA-MB-468 breast = system: MDA-MB-468 breast
MOLT-4 leukemia = system: MOLT-4 leukemia
NCI-H226 lung = system: NCI-H226 lung
NCI-H23 lung = system: NCI-H23 lung
NCI-H460 lung = system: NCI-H460 lung
NCI-H522 lung = system: NCI-H522 lung
NCI/ADR-RES ovarian = system: NCI/ADR-RES ovarian
OVCAR-3 ovarian = system: OVCAR-3 ovarian
OVCAR-4 ovarian = system: OVCAR-4 ovarian
OVCAR-5 ovarian = system: OVCAR-5 ovarian
OVCAR-8 ovarian = system: OVCAR-8 ovarian
PC-3 prostate = system: PC-3 prostate
RPMI-8226 leukemia = system: RPMI-8226 leukemia
RXF 393 renal = system: RXF 393 renal
SF-268 CNS = system: SF-268 CNS
SF-295 CNS = system: SF-295 CNS
SF-539 CNS = system: SF-539 CNS
SK-MEL-2 melanoma = system: SK-MEL-2 melanoma
SK-MEL-28 melanoma = system: SK-MEL-28 melanoma
SK-MEL-5 melanoma = system: SK-MEL-5 melanoma
SK-OV-3 ovarian = system: SK-OV-3 ovarian
SN12C renal = system: SN12C renal
SNB-19 CNS = system: SNB-19 CNS
SNB-75 CNS = system: SNB-75 CNS
SR leukemia = system: SR leukemia
SW-620 colon = system: SW-620 colon
T-47D breast = system: T-47D breast
TK-10 renal = system: TK-10 renal
U251 CNS = system: U251 CNS
UACC-257 melanoma = system: UACC-257 melanoma
UACC-62 melanoma = system: UACC-62 melanoma
UO-31 renal = system: UO-31 renal

CC(Nc1ncnc2ccc(-c3ccc4oc(N)nc4c3)cc12)c1ccccc1 (stereo not drawn)
GI50 (786-0 renal): 2.19 µM | TGI (786-0 renal): 8.59 µM | GI50 (A498 renal): 2.3 µM | TGI (A498 renal): 17.3 µM | GI50 (A549 NSCLC): 2.75 µM | TGI (A549 NSCLC): 18.2 µM | GI50 (ACHN renal): 1.84 µM | TGI (ACHN renal): 4.92 µM | GI50 (BT-549 breast): 2.62 µM | TGI (BT-549 breast): 11.3 µM | GI50 (CAKI-1 renal): 3.52 µM | TGI (CAKI-1 renal): 17.1 µM | GI50 (CCRF-CEM leukemia): 2.34 µM | TGI (CCRF-CEM leukemia): 10.2 µM | GI50 (COLO 205 colon): 5.3 µM | TGI (COLO 205 colon): > 100 µM | GI50 (DU-145 prostate): 2.91 µM | TGI (DU-145 prostate): 15.6 µM | GI50 (EKVX NSCLC): 2.73 µM | TGI (EKVX NSCLC): 18.5 µM | GI50 (HCC-2998 colon): 3.59 µM | TGI (HCC-2998 colon): 15.8 µM | GI50 (HCT-116 colon): 2.06 µM | TGI (HCT-116 colon): 4.78 µM | GI50 (HCT-15 colon): 2.85 µM | TGI (HCT-15 colon): 11.7 µM | GI50 (HL-60(TB) leukemia): 1.87 µM | TGI (HL-60(TB) leukemia): 5 µM | GI50 (HOP-62 NSCLC): 1.63 µM | TGI (HOP-62 NSCLC): 4.68 µM | GI50 (HOP-92 NSCLC): 2.02 µM | TGI (HOP-92 NSCLC): 5.62 µM | GI50 (HS 578T breast): 2.04 µM | TGI (HS 578T breast): 5.86 µM | GI50 (HT29 colon): 4.94 µM | TGI (HT29 colon): > 100 µM | GI50 (IGROV1 ovarian): 1.45 µM | TGI (IGROV1 ovarian): 3.75 µM | GI50 (K-562 leukemia): 3.89 µM | TGI (K-562 leukemia): 15.5 µM | GI50 (KM12 colon): 4.27 µM | TGI (KM12 colon): 29 µM | GI50 (LOX IMVI melanoma): 1.62 µM | TGI (LOX IMVI melanoma): 3 µM | GI50 (M14 melanoma): 4.97 µM | TGI (M14 melanoma): 42.4 µM | GI50 (MALME-3M melanoma): 1.7 µM | TGI (MALME-3M melanoma): 3.44 µM | GI50 (MCF7 breast): 1.59 µM | TGI (MCF7 breast): 3.57 µM | GI50 (MDA-MB-231 breast): 2.59 µM | TGI (MDA-MB-231 breast): 6.92 µM | GI50 (MDA-MB-435): 3.84 µM | TGI (MDA-MB-435): 19.5 µM | GI50 (MDA-MB-468 breast): 1.07 µM | TGI (MDA-MB-468 breast): 2.8 µM | GI50 (MOLT-4 leukemia): 2.67 µM | TGI (MOLT-4 leukemia): 10.4 µM | GI50 (NCI-H226 lung): 1.87 µM | TGI (NCI-H226 lung): 6.21 µM | GI50 (NCI-H23 lung): 3.53 µM | TGI (NCI-H23 lung): 14.5 µM | GI50 (NCI-H460 lung): 2.34 µM | TGI (NCI-H460 lung): 5.91 µM | GI50 (NCI-H522 lung): 2.83 µM | TGI (NCI-H522 lung): 13.4 µM | GI50 (NCI/ADR-RES ovarian): 3.1 µM | TGI (NCI/ADR-RES ovarian): 11.5 µM | GI50 (OVCAR-3 ovarian): 1.67 µM | TGI (OVCAR-3 ovarian): 3.35 µM | GI50 (OVCAR-4 ovarian): 2.14 µM | TGI (OVCAR-4 ovarian): 5.16 µM | GI50 (OVCAR-5 ovarian): 3.49 µM | TGI (OVCAR-5 ovarian): 18.7 µM | GI50 (OVCAR-8 ovarian): 2.96 µM | TGI (OVCAR-8 ovarian): 12.6 µM | GI50 (PC-3 prostate): 4.52 µM | TGI (PC-3 prostate): 17.1 µM | GI50 (RPMI-8226 leukemia): 2.47 µM | TGI (RPMI-8226 leukemia): 13.3 µM | GI50 (RXF 393 renal): 1.98 µM | TGI (RXF 393 renal): 5.87 µM | GI50 (SF-268 CNS): 3.91 µM | TGI (SF-268 CNS): 54.7 µM | GI50 (SF-295 CNS): 2.82 µM | TGI (SF-295 CNS): 12.9 µM | GI50 (SF-539 CNS): 1.91 µM | TGI (SF-539 CNS): 4.78 µM | GI50 (SK-MEL-2 melanoma): 19.5 µM | TGI (SK-MEL-2 melanoma): 41.7 µM | GI50 (SK-MEL-28 melanoma): 3.54 µM | TGI (SK-MEL-28 melanoma): 15.1 µM | GI50 (SK-MEL-5 melanoma): 2.15 µM | TGI (SK-MEL-5 melanoma): 5.88 µM | GI50 (SK-OV-3 ovarian): 2.65 µM | TGI (SK-OV-3 ovarian): 8.56 µM | GI50 (SN12C renal): 2.4 µM | TGI (SN12C renal): 7.26 µM | GI50 (SNB-19 CNS): 3.13 µM | TGI (SNB-19 CNS): 14.6 µM | GI50 (SNB-75 CNS): 1.45 µM | TGI (SNB-75 CNS): 3.61 µM | GI50 (SR leukemia): 2.9 µM | TGI (SR leukemia): 10.3 µM | GI50 (SW-620 colon): 4.42 µM | TGI (SW-620 colon): 18.9 µM | GI50 (T-47D breast): 4.06 µM | TGI (T-47D breast): 26 µM | GI50 (TK-10 renal): 1.57 µM | TGI (TK-10 renal): 5.51 µM | GI50 (U251 CNS): 2.8 µM | TGI (U251 CNS): 11.6 µM | GI50 (UACC-257 melanoma): 5.23 µM | TGI (UACC-257 melanoma): 39.5 µM | GI50 (UACC-62 melanoma): 3.26 µM | TGI (UACC-62 melanoma): 11.8 µM | GI50 (UO-31 renal): 1.37 µM | TGI (UO-31 renal): 4.16 µM

— PubChem BioAssay (NCI)
